Source: the supplement of paper PMC10627819

Legend:
S. pneumoniae D39V [1] = test: Bliss interaction score (quartile over a dose matrix) (fitness difference); higher = more antagonism (negative = synergy)
Summary of the method: (§1)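 The Bliss score takes observed fitness and subtracts the expected fitness, calculated as a product of single-drug fitness values. Those single-drug values were inferred from the combination data. Fitness is OD595 at entry into stationary phase divided by the plate's robust no-drug mean, capped at 1, and the score is summarised by quartiles across technical, biological and donor/recipient replicates.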

S. aureus DSM 20231 [2] = test: as above
Summary of the method: as §1

S. aureus Newman [3] = test: as above
Summary of the method: as §1

B. subtilis 168 [4] = test: as above
Summary of the method: as §1

S. pneumoniae D39V [5] = test: fitness (endpoint OD595 vs no drug) (fraction); higher = more growth
Summary of the method: (§2)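 Fitness expresses the optical density reached at the stationary-phase transition as a fraction of the robust mean of no-drug control wells. It is capped at 1. Measurements were OD595 every 30 min for 14 h at 37 °C after inoculation of 384-well plates at OD595 0.01 (30 µl, or 55 µl for S. pneumoniae), minus the first reading.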

S. aureus DSM 20231 [6] = test: as above
Summary of the method: as §2

S. aureus Newman [7] = test: as above
Summary of the method: as §2

B. subtilis 168 [8] = test: as above
Summary of the method: as §2
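Throughout, for Bliss interaction score (quartile over a dose matrix): first quartile when negative (synergy) and third quartile when positive (antagonism).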
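Throughout, for fitness (endpoint OD595 vs no drug): OD595 on entry to stationary phase over no-drug wells; at most 1.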

CO/N=C(\C(=O)N[C@@H]1C(=O)N2C(C(=O)O)=C(COC(C)=O)CS[C@H]12)c1csc(N)n1 [Cefotaxime] + Cc1onc(-c2ccccc2)c1C(=O)N[C@@H]1C(=O)N2[C@@H]1SC(C)(C)[C@@H]2C(=O)O [Oxacillin]
Conditions | Bliss interaction score
B. subtilis 168 [4] | 0.0466
S. aureus DSM 20231 [2] | 0.0453
S. aureus Newman [3] | 0.0747
S. pneumoniae D39V [1] | -0.116

Conditions | fitness
B. subtilis 168 [8], first compound 0.5 µg/mL, partner 0.002 µg/mL | 0.272
B. subtilis 168 [8], first compound 0.5 µg/mL, partner 0.008 µg/mL | 0.249
B. subtilis 168 [8], first compound 1 µg/mL, partner 0.002 µg/mL | 0.158
B. subtilis 168 [8], first compound 1 µg/mL, partner 0.004 µg/mL | 0.118
B. subtilis 168 [8], first compound 1 µg/mL, partner 0.008 µg/mL | 0.133
B. subtilis 168 [8], first compound 2 µg/mL, partner 0.002 µg/mL | 0.115
B. subtilis 168 [8], first compound 2 µg/mL, partner 0.004 µg/mL | 0.114
B. subtilis 168 [8], first compound 2 µg/mL, partner 0.008 µg/mL | 0.113
S. aureus DSM 20231 [6], first compound 0.039 µg/mL, partner 0.0156 µg/mL | 0.696
S. aureus DSM 20231 [6], first compound 0.039 µg/mL, partner 0.0312 µg/mL | 0.624
S. aureus DSM 20231 [6], first compound 0.039 µg/mL, partner 0.0625 µg/mL | 0.632
S. aureus DSM 20231 [6], first compound 0.078 µg/mL, partner 0.0156 µg/mL | 0.681
S. aureus DSM 20231 [6], first compound 0.078 µg/mL, partner 0.0312 µg/mL | 0.655
S. aureus DSM 20231 [6], first compound 0.078 µg/mL, partner 0.0625 µg/mL | 0.639
S. aureus DSM 20231 [6], first compound 0.156 µg/mL, partner 0.0156 µg/mL | 0.599
S. aureus DSM 20231 [6], first compound 0.156 µg/mL, partner 0.0312 µg/mL | 0.623
S. aureus DSM 20231 [6], first compound 0.156 µg/mL, partner 0.0625 µg/mL | 0.655
S. aureus DSM 20231 [6], first compound 0.312 µg/mL, partner 0.0156 µg/mL | 0.593
S. aureus DSM 20231 [6], first compound 0.312 µg/mL, partner 0.0312 µg/mL | 0.594
S. aureus DSM 20231 [6], first compound 0.312 µg/mL, partner 0.0625 µg/mL | 0.478
S. aureus Newman [7], first compound 0.078 µg/mL, partner 0.0156 µg/mL | 0.745
S. aureus Newman [7], first compound 0.078 µg/mL, partner 0.0312 µg/mL | 0.627
S. aureus Newman [7], first compound 0.078 µg/mL, partner 0.0625 µg/mL | 0.531
S. aureus Newman [7], first compound 0.156 µg/mL, partner 0.0156 µg/mL | 0.6
S. aureus Newman [7], first compound 0.156 µg/mL, partner 0.0312 µg/mL | 0.555
S. aureus Newman [7], first compound 0.156 µg/mL, partner 0.0625 µg/mL | 0.38
S. aureus Newman [7], first compound 0.625 µg/mL, partner 0.0156 µg/mL | 0.0697
S. aureus Newman [7], first compound 0.625 µg/mL, partner 0.0312 µg/mL | 0.0379
S. aureus Newman [7], first compound 0.625 µg/mL, partner 0.0625 µg/mL | 0.0206
S. aureus Newman [7], first compound 1.25 µg/mL, partner 0.0156 µg/mL | 0.0601
S. aureus Newman [7], first compound 1.25 µg/mL, partner 0.0312 µg/mL | 0.0503
S. aureus Newman [7], first compound 1.25 µg/mL, partner 0.0625 µg/mL | 0.0594
S. aureus Newman [7], first compound 2.5 µg/mL, partner 0.0156 µg/mL | 0.0599
S. aureus Newman [7], first compound 2.5 µg/mL, partner 0.0312 µg/mL | 0.0551
S. aureus Newman [7], first compound 2.5 µg/mL, partner 0.0625 µg/mL | 0.0574
S. pneumoniae D39V [5], first compound 0.0018 µg/mL, partner 0.005 µg/mL | 0.999
S. pneumoniae D39V [5], first compound 0.0018 µg/mL, partner 0.01 µg/mL | 0.983
S. pneumoniae D39V [5], first compound 0.0018 µg/mL, partner 0.02 µg/mL | 0.937
S. pneumoniae D39V [5], first compound 0.0018 µg/mL, partner 0.04 µg/mL | 0.345
S. pneumoniae D39V [5], first compound 0.0035 µg/mL, partner 0.005 µg/mL | ≥ 1
S. pneumoniae D39V [5], first compound 0.0035 µg/mL, partner 0.01 µg/mL | 0.979
S. pneumoniae D39V [5], first compound 0.0035 µg/mL, partner 0.02 µg/mL | 0.874
S. pneumoniae D39V [5], first compound 0.0035 µg/mL, partner 0.04 µg/mL | 0.189
S. pneumoniae D39V [5], first compound 0.007 µg/mL, partner 0.005 µg/mL | 0.979
S. pneumoniae D39V [5], first compound 0.007 µg/mL, partner 0.04 µg/mL | 0.0612

one replicate
Conditions | fitness
B. subtilis 168 [8], first compound 0.00775 µg/mL, partner 0.0078 µg/mL | 0.82
B. subtilis 168 [8], first compound 0.00775 µg/mL, partner 0.0155 µg/mL | 0.789
B. subtilis 168 [8], first compound 0.00775 µg/mL, partner 0.031 µg/mL | 0.741
B. subtilis 168 [8], first compound 0.0155 µg/mL, partner 0.0078 µg/mL | 0.644
B. subtilis 168 [8], first compound 0.0155 µg/mL, partner 0.0155 µg/mL | 0.664
B. subtilis 168 [8], first compound 0.0155 µg/mL, partner 0.031 µg/mL | 0.548
B. subtilis 168 [8], first compound 0.031 µg/mL, partner 0.0078 µg/mL | 0.482
B. subtilis 168 [8], first compound 0.031 µg/mL, partner 0.0155 µg/mL | 0.537
B. subtilis 168 [8], first compound 0.031 µg/mL, partner 0.031 µg/mL | 0.395
B. subtilis 168 [8], first compound 0.0625 µg/mL, partner 0.075 µg/mL | 0.0512
B. subtilis 168 [8], first compound 0.0625 µg/mL, partner 0.15 µg/mL | 0.0585
B. subtilis 168 [8], first compound 0.0625 µg/mL, partner 0.3 µg/mL | 0.0527
B. subtilis 168 [8], first compound 0.125 µg/mL, partner 0.075 µg/mL | 0.0627
B. subtilis 168 [8], first compound 0.125 µg/mL, partner 0.15 µg/mL | 0.0636
B. subtilis 168 [8], first compound 0.125 µg/mL, partner 0.3 µg/mL | 0.0489
B. subtilis 168 [8], first compound 0.25 µg/mL, partner 0.075 µg/mL | 0.0575
B. subtilis 168 [8], first compound 0.25 µg/mL, partner 0.15 µg/mL | 0.0677
B. subtilis 168 [8], first compound 0.25 µg/mL, partner 0.3 µg/mL | 0.0596
S. aureus Newman [7], first compound 0.039 µg/mL, partner 0.0156 µg/mL | 0.689
S. aureus Newman [7], first compound 0.039 µg/mL, partner 0.0312 µg/mL | 0.662
S. aureus Newman [7], first compound 0.039 µg/mL, partner 0.0625 µg/mL | 0.629
S. aureus Newman [7], first compound 0.312 µg/mL, partner 0.0156 µg/mL | 0.317
S. aureus Newman [7], first compound 0.312 µg/mL, partner 0.0312 µg/mL | 0.224
S. aureus Newman [7], first compound 0.312 µg/mL, partner 0.0625 µg/mL | 0.181
